# Patent US20250312469A1 (CANGET BIOTEKPHARMA, priority 2024, published 2025)
# Several values for one entry are separate records, joined by “and”; a condition that tells them apart may be missing. Identical values can stand only once. Marks after values point to notes of the source that are not given here.
# How the values were obtained:
# SK-ES-1 OS tumors = experiment: SK-ES-1 osteosarcoma xenograft; type: in vivo, SCID mice; conditions: weekly×4
# [1] = Rat toxicology/MTD, non-clinically compatible FL118 HPMC suspension (Covance); conditions: for % BW Change (Day 4) / BW Change (Day 4) / Mean body weight Day 1 / Mean body weight Day 4: 3.3 mg/kg/dose
# Description: Twenty male and 20 female Hsd: Sprague Dawley®SDR rats were received from Envigo RMS, Inc. (Indianapolis, Indiana). Animals were acclimated to the test facility for 7 days prior to initiation.
# Prior to group assignment, animals were excluded from the selection pool/sex to produce minimal variation. Animals were assigned to the study using a computerized procedure designed to achieve body weight balance with respect to group assignment with the following experimental design.
# Doses were based on the most recently recorded scheduled body weight. Animals were checked twice daily (a.m. and p.m.) for mortality, abnormalities, and signs of pain or distress. Cage-side observations were conducted for each animal once daily during the dosing phase, except on days when detailed observations were conducted. Abnormal findings were recorded. Detailed observations were conducted for each animal once during the pre-dose phase, and on Days 1, 4 and 8 (prior to dosing, as applicable) of the dosing phase. Detailed observations were also collected for each animal on days of scheduled sacrifice (all surviving animals). On each day of dosing, cage-side observations were conducted for each animal approximately 1, 4, and 24 hours postdose. Postdose observations were based on the time dosing was completed for each group/sex. Body weights were recorded once during the pre-dose phase, and on Days 1, 4, and 8 (prior to dosing, as applicable) of the dosing phase. The amount of food consumed by each cage of was recorded Days 1 to 4, Days 4 to 8, and Days 8 to 9. Blood samples for hematology, coagulation, and clinical chemistry were collected from fasted toxicity animals via a jugular vein. Blood samples were collected on the day of scheduled sacrifice. […] The anticoagulants were sodium citrate for coagulation tests and potassium EDTA for hematology tests. Samples for clinical chemistry were collected without anticoagulant.
# On Day 10 of the dosing phase, all surviving animals, having been fasted overnight, were anesthetized via isoflurane inhalation, exsanguinated, and necropsied. Terminal body weights were recorded for animals sacrificed at a scheduled interval. A macroscopic examination of the external features of the carcass; external body orifices; abdominal, thoracic, and cranial cavities; organs; and tissues was performed. Organ weights were recorded at the scheduled sacrifice. Paired organs were weighed together. Bone marrow smears (two slides) were prepared from the femur of each animal.
# Various models of calculators, computers, and computer programs were used to analyze data in this study. Values in some tables (e.g., means, standard deviations, or individual values) may differ slightly from those in other tables, from individually calculated data, or from statistical analysis data, because different models round off or truncate numbers differently. However, neither the integrity nor the interpretation of the data was affected by these differences.
# Data for each sex were analyzed separately; only data collected on or after the first day of dosing were analyzed statistically. Analysis of variance (ANOVA) and pairwise comparisons were used to analyze absolute body weight, Body weight change and continuous clinical pathology values. Levene's test was done to test for equality of variances between groups.
# in vivo = conditions: SCID, mouse, iv
# TA1535 = experiment: Ames Bacterial Reverse Mutation Assay
# USP2a = target: T1, USP2a (Homo sapiens, UniProt O75604); experiment: Cell-based polyUb/MdmX and USP2a mRNA/protein analysis in PCa cells; parameters: purchased Invitrogen ProtoArray Human Protein Microarray v5.0
# T1 sequence (O75604 1-605): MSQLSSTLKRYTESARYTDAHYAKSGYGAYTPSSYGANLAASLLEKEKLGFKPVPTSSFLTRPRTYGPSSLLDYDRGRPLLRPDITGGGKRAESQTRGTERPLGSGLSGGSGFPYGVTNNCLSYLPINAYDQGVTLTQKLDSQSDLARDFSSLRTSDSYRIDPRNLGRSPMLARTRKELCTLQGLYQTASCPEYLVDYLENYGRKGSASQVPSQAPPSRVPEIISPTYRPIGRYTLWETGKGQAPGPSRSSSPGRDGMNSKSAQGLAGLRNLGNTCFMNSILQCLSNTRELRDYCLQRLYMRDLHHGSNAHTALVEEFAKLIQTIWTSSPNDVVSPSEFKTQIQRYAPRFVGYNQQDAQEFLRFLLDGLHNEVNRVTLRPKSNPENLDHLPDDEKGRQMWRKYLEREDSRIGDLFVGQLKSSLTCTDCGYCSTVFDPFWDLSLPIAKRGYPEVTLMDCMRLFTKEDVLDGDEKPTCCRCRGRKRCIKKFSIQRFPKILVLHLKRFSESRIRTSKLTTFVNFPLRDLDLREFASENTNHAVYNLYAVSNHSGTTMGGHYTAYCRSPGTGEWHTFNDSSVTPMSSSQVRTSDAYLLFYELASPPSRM
# UbE2T = target: T2, UbE2T (Homo sapiens, UniProt Q9NPD8); experiment: UbE2T protein (WB) and mRNA (RT-PCR) in PCa cells; type: cell-based; parameters: purchased Invitrogen ProtoArray Human Protein Microarray v5.0
# T2 sequence (Q9NPD8 1-197): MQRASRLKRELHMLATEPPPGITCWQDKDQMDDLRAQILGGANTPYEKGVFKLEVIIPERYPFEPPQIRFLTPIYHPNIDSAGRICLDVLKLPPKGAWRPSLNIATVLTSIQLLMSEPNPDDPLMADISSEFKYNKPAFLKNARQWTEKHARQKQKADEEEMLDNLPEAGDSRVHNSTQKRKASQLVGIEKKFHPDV
# [2] = TA1535 partial repeat, 0.010 μM −S9
# [3] = TA1535 partial repeat, 0.10 μM −S9
# [4] = TA1535 partial repeat, 1.0 μM −S9
compound,measurement,setting,value
CCC1(O)C(=O)OCc2c1cc1n(c2=O)Cc2cc3cc4c(cc3nc2-1)OCO4 (stereo not drawn) [FL118],antitumor efficacy,SK-ES-1 OS tumors,effectively eliminated human osteosarcoma xenograft tumors
same,% BW Change (Day 4),[1]; Female,−14%
same,BW Change (Day 4),[1]; Female,−26* g
same,Mean body weight Day 1,[1]; Female,192 g
same,Mean body weight Day 4,[1]; Female,168* g
same,% BW Change (Day 4),[1]; Male,−12%
same,BW Change (Day 4),[1]; Male,−25* g
same,Mean body weight Day 1,[1]; Male,207 g
same,Mean body weight Day 4,[1]; Male,183* g
same,highest non-severely toxic dose (HNSTD),"[1]; oral, day 1 and day 8",1.65 mg/kg/dose
same,Tmax,in vivo; FaDu tumor,10 min
same,half-life,in vivo; FaDu tumor,411 min
same,Tmax,in vivo; SW620 tumor,10 min
same,half-life,in vivo; SW620 tumor,765 min
same,Tmax,in vivo; plasma,10 min
same,Vd,in vivo; plasma,36.8 L/kg
same,clearance,in vivo; plasma,238 mL/min/kg
same,half-life,in vivo; plasma,107 min
same,bacterial strain mutation,TA1535,does not induce
same,Background Lawn Code,"TA1535; TA1535, 0.010 μM +S9",1
same,Colony Counts Average,"TA1535; TA1535, 0.010 μM +S9",14
same,Colony Counts Replicate 1-3,"TA1535; TA1535, 0.010 μM +S9",20 and 9 and 13
same,Background Lawn Code,"TA1535; TA1535, 0.010 μM −S9",1
same,Colony Counts Average,"TA1535; TA1535, 0.010 μM −S9",39
same,Colony Counts Replicate 1-3,"TA1535; TA1535, 0.010 μM −S9",39 and 37 and 41
same,Background Lawn Code,"TA1535; TA1535, 0.10 μM +S9",1
same,Colony Counts Average,"TA1535; TA1535, 0.10 μM +S9",14
same,Colony Counts Replicate 1-3,"TA1535; TA1535, 0.10 μM +S9",13 and 8 and 20
same,Background Lawn Code,"TA1535; TA1535, 0.10 μM −S9",1
same,Colony Counts Average,"TA1535; TA1535, 0.10 μM −S9",61
same,Colony Counts Replicate 1-3,"TA1535; TA1535, 0.10 μM −S9",54 and 62 and 67
same,Background Lawn Code,"TA1535; TA1535, 1.0 μM +S9",1
same,Colony Counts Average,"TA1535; TA1535, 1.0 μM +S9",12
same,Colony Counts Replicate 1-3,"TA1535; TA1535, 1.0 μM +S9",12 and 10 and 15
same,Background Lawn Code,"TA1535; TA1535, 1.0 μM −S9",1
same,Colony Counts Average,"TA1535; TA1535, 1.0 μM −S9",25
same,Colony Counts Replicate 1-3,"TA1535; TA1535, 1.0 μM −S9",23 and 21 and 30
same,Background Lawn Code,TA1535; [2],1
same,Colony Counts Average,TA1535; [2],12
same,Colony Counts Replicate 1-3,TA1535; [2],13 and 12 (2×)
same,Background Lawn Code,TA1535; [3],1
same,Colony Counts Average,TA1535; [3],14
same,Colony Counts Replicate 1-3,TA1535; [3],16 and 15 and 10
same,Background Lawn Code,TA1535; [4],1
same,Colony Counts Average,TA1535; [4],12
same,Colony Counts Replicate 1-3,TA1535; [4],11 and 13 and 12
same,mean revertant colonies over negative control,"TA1535; repeat assay, -S9 condition",less than 2 fold
same,USP2a mRNA and protein level,USP2a,USP2a increases
same,polyUb-mediated MdmX degradation in cells,USP2a,promotes polyUb-mediated MdmX degradation
same,UbE2T mRNA,UbE2T,without inhibiting its mRNA levels
same,UbE2T protein,UbE2T,inhibits UbE2T protein in a dose- and time-dependent manner
